The text below walks through data of patent US5925633A, “3-Substituted-4-oxa-1-azabicyclo [3,2,0]heptan-7-one as cysteine protease inhibitors” (Synphar Laboraties, Inc., priority 1996, dated 1999).

Assay [1] concerns the target T1, papain (Carica papaya, UniProt P00784).
T1 sequence (P00784 134-345): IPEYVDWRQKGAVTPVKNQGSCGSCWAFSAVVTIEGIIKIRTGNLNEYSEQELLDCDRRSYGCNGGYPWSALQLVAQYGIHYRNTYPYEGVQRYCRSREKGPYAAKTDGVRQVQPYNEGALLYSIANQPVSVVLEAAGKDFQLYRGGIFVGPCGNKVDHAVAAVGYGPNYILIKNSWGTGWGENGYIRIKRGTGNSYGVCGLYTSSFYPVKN
Put plainly: In vitro assay procedure for papain (inhibition). It counts as biochemical. On the procedure:
To a 170 μl of enzyme-buffer mixture (enzyme: papain, diluted to give 30 mOD/min, buffer: 0.2 M potassium phosphate, 1.0 mM EDTA, 5 mM L-Cysteine, pH 6.5) a 10 μL of inhibitor (dissolved in DMSO) was added. After 10 min of incubation at room temperature, a 20 μl of 10 mM substrate (N-CBZ-Pro-Phe-Arg-pNA, dissolved in DMSO) was added to initiate reaction. Reading is followed up for 3 min at the Thermomax plate reader (absorbance at 405 nm)
A plot of percentage of inhibition vs inhibitor concentration is obtained, and IC50 is determined using a linear regression calculations (concentration of inhibitor which will give 50% inhibition).

Assay [2] has as its target cathepsin B (Rattus norvegicus, UniProt P00787). Put plainly: In vitro assay procedure for cathepsin B (inhibition). It counts as biochemical.
Experimental: The compounds of formula I were tested for inhibition of cathepsin B using the known method (A. J. Barret et al., Biochem. J. 1982, 201, 189-198). […] After 10 min of incubation at room temperature, a 20 μl of 5 mM substrate (N-CBZ-Phe-Arg-AMC, dissolved in DMSO) was added to initiate reaction. Reading is followed up for 10 min at the fluoroscan reader (excitation at 380 nm, emission at 460 nm).
The mark [3] stands for this setting: rat cathepsin B, pH 5.1, 10 min incubation at room temperature, substrate N-CBZ-Phe-Arg-AMC, read-out: IC50 Cathepsin B.
Where [4] appears, read: pH 6.5, 10 min incubation at room temperature, substrate N-CBZ-Pro-Phe-Arg-pNA, read-out: IC50 Papain.

Like-named read-outs stand apart in the source and are kept apart here.

Sequence of cathepsin B (P00787 80-339): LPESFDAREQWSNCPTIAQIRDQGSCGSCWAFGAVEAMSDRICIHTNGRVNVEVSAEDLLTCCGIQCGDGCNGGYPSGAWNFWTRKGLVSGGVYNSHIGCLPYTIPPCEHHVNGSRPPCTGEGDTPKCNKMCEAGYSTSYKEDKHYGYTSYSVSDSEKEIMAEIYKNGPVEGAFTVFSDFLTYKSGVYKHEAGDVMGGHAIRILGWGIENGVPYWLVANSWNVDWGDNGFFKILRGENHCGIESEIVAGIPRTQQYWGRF

As for `O=C(O)CC1CN2C(=O)CC2O1` (stereo not shown), the half-maximal inhibitory concentration (IC50) (in general, the concentration that gives 50% inhibition) in assay [1] was determined as 1690 nM; in assay [2] (setting [3]), 3980 nM.
In the case of `O=C(N[C@@H](Cc1ccccc1)C(=O)OC[C@H]1CN2C(=O)C[C@@H]2O1)OCc1ccccc1` (mixture of isomers) [Example 4, (3RS,5SR)-3-{N-(benzyloxycarbonyl)-L-phenylalanyl}-oxymethyl-4-oxa-1-azabicyclo [3,2,0] heptan-7-one], the IC50 in assay [1] (setting [4]) was determined as 240 nM; in assay [2] (setting [3]), 590 nM.
For `O=C(OC[C@H]1CN2C(=O)C[C@@H]2O1)[C@@H]1CCCN1C(=O)OCc1ccccc1` (mixture of isomers) [Example 5, (3RS,5SR)-3-{N-(benzyloxycarbonyl)-L-prolyl}-oxymethyl-4-oxa-1-azabicyclo[3,2,0] heptan-7-one] the same measures were 490 nM and 440 nM.
For `CC[C@H](C)[C@H](NC(=O)OCc1ccccc1)C(=O)OC[C@H]1CN2C(=O)C[C@@H]2O1` (mixture of isomers) [Example 6, (3RS,5SR) -3-{N-(benzyloxycarbonyl)-L-isoleucyl}-oxymethyl-4-oxa-1-azabicyclo [3,2,0] heptan-7-one] the same measures were 380 nM and 510 nM.
For `O=C(CNC(=O)[C@H](Cc1ccccc1)NC(=O)OCc1ccccc1)OC[C@H]1CN2C(=O)C[C@@H]2O1` (mixture of isomers) [Example 7, (3RS,5SR)-3-{N-(benzyloxycarbonyl)-L-phenylalanyl-glycyl}-oxymethyl-4-oxa-1-azabicyclo [3,2,0] heptan-7-one] the same measures were 3510 nM and 3110 nM.
`CC[C@H](C)[C@H](NC(=O)OCc1ccccc1)C(=O)N1CCC[C@H]1C(=O)OC[C@H]1CN2C(=O)C[C@@H]2O1` (mixture of isomers) [Example 8, (3RS, 5SR)-3-{N-(benzyloxycarbonyl)-L-isoleucyl-L-prolyl}-oxymethyl-4-oxa-1-azabicyclo [3,2,0] heptan-7-one]: the figures for the half-inhibitory concentration (IC50) in assay [1] (setting [4]) and in assay [2] (setting [3]) were 740 nM and 4500 nM, respectively.
Consider `CC(C)C[C@H](NC(=O)OCc1ccccc1)C(=O)N1CCC[C@H]1C(=O)OC[C@H]1CN2C(=O)C[C@@H]2O1` (mixture of isomers) [Example 9, (3RS, 5SR)-3-{N-(benzyloxycarbonyl)-L-leucyl-L-prolyl}-oxymethyl-4-oxa-1-azabicyclo [3,2,0] heptan-7-one], for which the IC50 in assay [1] (setting [4]) came out at 2050 nM; in assay [2] (setting [3]) it was 2900 nM.
Taken in the same sequence, the figures for `O=C(OC[C@H]1CN2C(=O)C[C@@H]2O1)C1CCCCC1` (racemic) [Example 11, (3RS,5SR)-3-(cyclohexanecarbonyloxymethyl)-4-oxa-1-azabicyclo [3,2,0] heptan-7-one] were 1000 nM and 790 nM.
`O=C(OC[C@H]1CN2C(=O)C[C@@H]2O1)C1CCCC1` (racemic) [Example 12, (3RS,5SR)-3-(cyclopentanecarbonyloxymethyl)-4-oxa-1-azabicyclo [3,2,0] heptan-7-one]: the IC50 in assay [1] (setting [4]) stood at 1130 nM; in assay [2] (setting [3]), 660 nM.
For `Cc1c(C(=O)NC[C@@H]2CN3C(=O)C[C@@H]3O2)c(=O)[nH]c2ccccc12` (racemic) [Example 16, (3RS, 5SR)-3-(1,2-dihydro-4-methyl-2-oxo-quinolin-3-yl)-carbonylaminomethyl-4-oxa-1-azabicyclo [3,2,0] heptan-7-one] the same measures were 700 nM and 4200 nM.
Taken in the same sequence, the figures for `Cc1c(C(=O)OC[C@H]2CN3C(=O)C[C@@H]3O2)c(=O)[nH]c2ccccc12` (relative stereo) [Example 10, (3RS, 5SR)-3-(1,2-dihydro-4-methyl-2-oxo-guinolin-3-yl)-carbonyloxymethyl-4-oxa-1-azabicyclo [3,2,0] heptan-7-one] were 140 nM and 3050 nM.
Taken in the same sequence, the figures for `O=C(/C=C/c1ccccc1)OC[C@H]1CN2C(=O)C[C@@H]2O1` (relative stereo) [Example 13, (3RS, 5SR)-3-(trans-3-phenylpropenoyl)oxymethyl-4-oxa-1-azabicyclo [3,2,0] heptan-7-one] were 450 nM and 4060 nM.
With `Cn1c2nc(=O)[nH]c(=O)c-2nc2cc(C(=O)OC[C@H]3CN4C(=O)C[C@@H]4O3)ccc21` (relative stereo) [Example 14, (3RS, 5SR)-3-(10-methylisoalloxazin-7-yl)-carbonyloxy methyl-4-oxa-1-azabicyclo [3,2,0] heptan-7-one], the IC50 came to 760 nM in assay [1] (setting [4]) and 16900 nM in assay [2] (setting [3]).
For `CCOC(=O)c1ccc2c(c1)nc1c(=O)n(C[C@H]3CN4C(=O)C[C@@H]4O3)c(=O)nc-1n2C` (relative stereo) [Example 15, (3RS, 5SR)-3-(7-ethoxycarbonyl-10-methylisoalloxazin-3-yl) -methyl-4-oxa-1-azabicyclo [3,2,0] heptan-7-one] the same measures were 1240 nM and 2890 nM.
In the case of `CC(C)(C)[Si](C)(C)OC[C@H]1CN2C(=O)C[C@@H]2O1` [Example 1A, (3R, 5S)-3-(tert-butyldimethylsilyl)oxymethyl-4-oxa-1-azabicyclo [3,2,0] heptan-7-one], the IC50 amounted to 160 nM in assay [1] (setting [4]) and 778 nM in assay [2].
As for `CC(C)(C)[Si](C)(C)OC[C@H]1CN2C(=O)C[C@H]2O1` [Example 1B, (3R, 5R)-3-(tert-butyldimethylsilyl)oxymethyl-4-oxa-1-azabicyclo [3,2,0] heptan-7-one], the concentration for half-maximal inhibition (IC50) in assay [1] (setting [4]) stood at 3100 nM; in assay [2], 7780 nM.
`O=C1C[C@@H]2O[C@@H](CO)CN12` [Example 2, (3R, 5S)-3-hydroxymethyl-4-oxa-1-azabicyclo[3,2,0] heptan-7-one]: the half-maximal inhibitory concentration (IC50) in assay [1] (setting [4]) turned out to be 2030 nM; in assay [2] (setting [3]), 5000 nM.
Taken in the same sequence, the figures for `CC(=O)NC[C@H]1CN2C(=O)C[C@@H]2O1` [Example 3, (3S,5S)-3-(N-acetylamino)methyl-4-oxa-1-azabicyclo [3,2,0] heptan-7-one] were 590 nM and 560 nM.
With `O=C1C[C@@H]2O[C@@H](Cn3ccnn3)CN12` [Example 17, (3R,5S)-3-(1,2,3-triazol-1-yl)-methyl-4-oxa-1-azabicyclo [3,2,0] heptan-7-one], the IC50 in assay [1] and in assay [2] (setting [3]) was 290 nM throughout.
Regarding `O=C(CC1CN2C(=O)CC2O1)OC(c1ccccc1)c1ccccc1` (stereo not shown) [Example 18, diphenylmethyl 2-(7-oxo-4-oxa-1-azabicyclo [3,2,0]heptan-3-yl)-acetate], the half-inhibitory concentration (IC50) in assay [1] (setting [4]) was found to be 2080 nM; in assay [2] (setting [3]) it was 2970 nM.
For `O=C(OCc1ccccc1)[C@@H]1CCCN1C(=O)CC1CN2C(=O)CC2O1` (stereo partly drawn) [Example 20, N-{(7-oxo-4-oxa-1-azabicyclo [3,2,0]heptan-3-yl)-methylcarbonyl} L-proline benzyl ester] the same measures were 560 nM and 13700 nM.
Turning to `NC(CC(=O)O)C(=O)NCC1CN2C(=O)CC2O1` (stereo not shown) [Example 21], the half-maximal inhibitory concentration (IC50) in assay [1] (setting [4]) was above 20000 nM; in assay [2] (setting [3]), 12600 nM.
Regarding `NC(CC(=O)O)C(=O)OCC1CN2C(=O)CC2O1` (stereo not shown) [Example 22], the IC50 in assay [1] (setting [4]) and in assay [2] (setting [3]) was above 20000 nM throughout.
As for `O=C(N[C@@H](Cc1ccccc1)C(=O)NCC1CN2C(=O)CC2O1)OCc1ccccc1` (stereo partly shown) [Example 23], the half-maximal inhibitory concentration (IC50) in assay [1] (setting [4]) worked out at 350 nM; in assay [2] (setting [3]) it was 2400 nM.
As for `NC(CCC(=O)OCC1CN2C(=O)CC2O1)C(=O)O` (stereo not shown) [Example 24], the IC50 amounted to 2920 nM in assay [1] (setting [4]) and 12000 nM in assay [2] (setting [3]).
Taken in the same sequence, the figures for `CC(N)C(=O)OCC1CN2C(=O)CC2O1` (stereo not shown) [Example 25] were 3310 nM and above 20000 nM.
Taken in the same sequence, the figures for `CC(N)C(=O)NCC1CN2C(=O)CC2O1` (stereo not shown) [Example 26] were 2910 nM and above 20000 nM.
For `O=C(CCl)NCC1CN2C(=O)CC2O1` (stereo not shown) [Example 27] the same measures were 900 nM and 400 nM.
For the compound `O=C1CC2OC(CNC(=O)C(F)(F)F)CN12` (stereo not shown) [Example 28], the figures for the IC50 in assay [1] (setting [4]) and in assay [2] (setting [3]) were 840 nM and 330 nM, respectively.
Taken in the same sequence, the figures for `O=C(O)C[S+]([O-])CC1CN2C(=O)CC2O1` (stereo not shown) [Example 29] were 3900 nM and 380 nM.
Taken in the same sequence, the figures for `CC(C)C(=O)NCC1CN2C(=O)CC2O1` (stereo not shown) [Example 30] were 950 nM and 460 nM.
Taken in the same sequence, the figures for `CC(=O)NCC(=O)NCC1CN2C(=O)CC2O1` (stereo not shown) [Example 31] were 4100 nM and 2600 nM.
Regarding `CCCCCC(=O)NCC1CN2C(=O)CC2O1` (stereo not shown) [Example 32], the IC50 in assay [1] (setting [4]) and in assay [2] (setting [3]) was 2300 nM throughout.
In the case of `CS(=O)(=O)NCC1CN2C(=O)CC2O1` (stereo not shown) [Example 33], the IC50 in assay [1] (setting [4]) stood at 910 nM; in assay [2] (setting [3]), 950 nM.
Taken in the same sequence, the figures for `CC(=O)NCC[S+]([O-])CC1CN2C(=O)CC2O1` (stereo not shown) [Example 34] were 3800 nM and 14600 nM.
As to `O=C(O)CS(=O)(=O)CC1CN2C(=O)CC2O1` (stereo not shown) [Example 35], the IC50 was 12900 nM in assay [1] (setting [4]) and 740 nM in assay [2] (setting [3]).
For `CCCCCCCCCCCCCCCC(=O)OCC1CN2C(=O)CC2O1` (stereo not shown) [Example 36] the same measures were above 50000 nM and above 50000 nM.
Taken in the same sequence, the figures for `O=C(O)C=CC(=O)OCC1CN2C(=O)CC2O1` (stereo not shown) [Example 37] were 19000 nM and 1900 nM.
